Here are results for 22 molecules from patent US9676771B2, “Compounds for inhibiting drug-resistant strains of HIV-1 integrase” (priority 2013, dated 2017).

Where two headings read alike, the source gives them in different places.

For one data set, the target named is HIV-1 integrase (Human immunodeficiency virus type 1 group M subtype B, UniProt P12497). Briefly: biochemical. The class given is biochemical. As to the method: In Vitro Integrase Assay.
Integrase reactions were carried out by adding drugs or an equivalent volume of 100% dimethyl sulfoxide (DMSO; used as the drug solvent) to a mixture of 20 nM DNA and 400 nM integrase in 50 mM morpholinepropanesulfonic acid (pH 7.2), 7.5 mM MgCl2, and 14 mM 2-mercaptoethanol. Reactions were performed at 37° C. for 2 h and quenched by the addition of an equal volume of loading buffer (formamide containing 1% sodium dodecyl sulfate, 0.25% bromophenol blue, and xylene cyanol). […] Dried gels were visualized using a Typhoon 8600 (GE Healthcare, Piscataway, N.J.). Densitometric analyses were performed using ImageQuant 5.1 software from GE Healthcare.

The test system of data set [1] is HIV-1 constructs containing wild-type IN. Nature of the data set: microbe, parasite or virus in culture. To be noted: Human immunodeficiency virus 1; Table 3; WT IN; read-out: EC50 (nM, WT). The class given is cell-based. An excerpt: Single-Round HIV-1 Infectivity Assay.
Human embryonyl kidney cell culture cell line 293 was acquired from the American type Culture Collection (ATCC).
The virus-containing supernatants were then harvested, clarified by low-speed centrifugation, filtrated, and diluted for preparation in infection assays. […] Activity was normalized to infectivity in the absence of target compounds. KaleidaGraph (Synergy Software, Reading, Pa.) was used to perform regression analysis on the data. EC50 values were determined from the fit model.

A further data set in a line: in vitro. Format: cell-based, human. As to conditions: human, Table 3; 50% reduction in the level of ATP in HOS cells. As to the method:
Cellular Cytotoxicity Assay.
On the day of the screen, cells were treated with compounds at the appropriate concentration range chosen and incubated at 37° C. for 48 hrs. Cytotoxicity was measured by monitoring ATP levels via a luciferase reporter assay. Cells were lysed in 50 μL cell lysis buffer (PerkinElmer, Waltham, Mass.) and shaken at 700 rpm at room temperature for 5 mins After the addition of 50 μL of ATPlite buffer (PerkinElmer) directly onto the lysed cells and shaking at 700 rpm at room temperature for 5 mins, ATP levels were monitored by measuring luciferase activity using a microplate reader. Activity was normalized to cytotoxicity in the absence of target compounds. KaleidaGraph (Synergy Software, Reading, Pa.) was used to perform regression analysis on the data. CC50 values were determined from the fit model.

Where [2] appears, read: Table 1, 3′-processing, read-out: IC50 Values 3′-Processing.
The mark [3] stands for this setting: Table 1, strand transfer, read-out: IC50 Values Strand transfer.
Where [4] appears, read: read-out: IC50 (3^+-Processing).
Setting [5] is: read-out: IC50 (Strand Transfer).
Where [6] appears, read: Table 4, 3′-processing, read-out: IC50 (3^+-Processing).
The mark [7] stands for this setting: Table 4, strand transfer, read-out: IC50 (Strand Transfer).

What is called IC50 is the point on the concentration scale where inhibition reaches its midpoint. Take `O=C(NCc1ccc(F)cc1F)c1c(O)c2cccnc2[nH]c1=O` [XZ352, N-(2,4-difluorobenzyl)-4-hydroxy-2-oxo-1,2-dihydro-1,8-naphthyridine-3-carboxamide]: the results for the IC50 at HIV-1 integrase (setting [2]) and on HIV-1 integrase (setting [3]) were over 333 µM and 7.1 ± 1.8 µM, respectively.
For `O=C(NCc1ccc(F)cc1F)c1cc2ccccc2n(O)c1=O` [XZ353, N-(2,4-difluorobenzyl)-1-hydroxy-2-oxo-1,2-dihydroquinoline-3-carboxamide], in that order: over 333 µM and 19.7 ± 2.7 µM.
For the molecule `O=C(NCc1ccc(F)cc1)c1c(O)c2cccnc2[nH]c1=O` [XZ364, N-(4-fluorobenzyl)-4-hydroxy-2-oxo-1,2-dihydro-1,8-naphthyridine-3-carboxamide], the values for the IC50 on HIV-1 integrase (setting [2]) and on HIV-1 integrase (setting [3]) were 136 ± 16 µM and 5.1 ± 1.5 µM, respectively.
For `O=C(NCc1ccc(F)c(Cl)c1)c1c(O)c2cccnc2[nH]c1=O` [XZ366, N-(3-chloro-4-fluorobenzyl)-4-hydroxy-2-oxo-1,2-dihydro-1,8-naphthyridine-3-carboxamide], in that order: 125 ± 15 µM and 7.8 ± 1.1 µM.
As for `O=C(NCc1ccc(F)c(F)c1)c1c(O)c2cccnc2[nH]c1=O` [XZ368, N-(3,4-difluorobenzyl)-4-hydroxy-2-oxo-1,2-dihydro-1,8-naphthyridine-3-carboxamide], the IC50 stood at 93 ± 8 µM on HIV-1 integrase (setting [2]) and 8.1 ± 1.8 µM on HIV-1 integrase (setting [3]).
Regarding `O=C(NCc1ccc(F)cc1F)c1cc2cccc(O)c2n(O)c1=O` [XZ369, N-(2,4-difluorobenzyl)-1,8-dihydroxy-2-oxo-1,2-dihydroquinoline-3-carboxamide], the IC50 is 43 ± 5 µM at HIV-1 integrase (setting [2]) and 18 ± 7 µM at HIV-1 integrase (setting [3]).
For `COc1cccc2cc(C(=O)NCc3ccc(F)cc3F)c(=O)n(O)c12` [XZ370, N-(2,4-difluorobenzyl)-1-hydroxy-8-methoxy-2-oxo-1,2-dihydroquinoline-3-carboxamide], in that order: over 333 µM and over 333 µM.
One may read the EC50 as the concentration that produces a half-maximal response. What is called CC50 is the concentration at which the toxic effect on the cells reaches its halfway point. On to `CNc1c(C(=O)NCc2ccc(F)cc2F)c(=O)n(O)c2ncccc12` [XZ371, N-(2,4-difluorobenzyl)-1-hydroxy-4-(methylamino)-2-oxo-1,2-dihydro-1,8-naphthyridine-3-carboxamide], for which the IC50 at HIV-1 integrase (setting [4]) was found to be 3.7 ± 0.4 µM; at HIV-1 integrase (setting [5]), 0.027 ± 0.004 µM. The EC50 in data set [1] was 3.1 ± 0.6 nM. In “in vitro”, the CC50 is over 250 µM.
As to `O=C(NCc1ccc(F)c(Cl)c1)c1cc2cccc(O)c2n(O)c1=O` [XZ374, N-(3-chloro-4-fluorobenzyl)-1,8-dihydroxy-2-oxo-1,2-dihydroquinoline-3-carboxamide], the IC50 at HIV-1 integrase (setting [2]) was determined as 17 ± 1 µM; at HIV-1 integrase (setting [3]), 0.53 ± 0.13 µM.
For `O=C(NCc1ccc(F)c(F)c1)c1cc2cccc(O)c2n(O)c1=O` [XZ375, N-(3,4-difluorobenzyl)-1,8-dihydroxy-2-oxo-1,2-dihydroquinoline-3-carboxamide], in that order: 24 ± 3 µM and 0.78 ± 0.22 µM.
`CCCCCNc1c(C(=O)NCc2ccc(F)cc2F)c(=O)n(O)c2ncccc12` [XZ380, N-(2,4-difluorobenzyl)-1-hydroxy-2-oxo-4-(pentylamino)-1,2-dihydro-1,8-naphthyridine-3-carboxamide]: the figures for the IC50 at HIV-1 integrase (setting [4]) and on HIV-1 integrase (setting [5]) were 8.2 ± 1.6 µM and 0.024 ± 0.009 µM, respectively. In addition, the EC50 in data set [1] amounted to 7.4 ± 1.4 nM. For the same molecule, the cytotoxic concentration (CC50) in the data set “in vitro” turned out to be 94.2 ± 24.4 µM.
For `CC(C)Nc1c(C(=O)NCc2ccc(F)cc2F)c(=O)n(O)c2ncccc12` [XZ381, N-(2,4-difluorobenzyl)-1-hydroxy-4-(isopropylamino)-2-oxo-1,2-dihydro-1,8-naphthyridine-3-carboxamide], in that order: 1.8 ± 0.2 µM, 0.016 ± 0.004 µM, 7.2 ± 3 nM and over 250 µM.
For `O=C(NCc1ccc(F)cc1F)c1c(NCCc2ccccc2)c2cccnc2n(O)c1=O` [XZ382, N-(2,4-difluorobenzyl)-1-hydroxy-2-oxo-4-(phenethylamino)-1,2-dihydro-1,8-naphthyridine-3-carboxamide], in that order: 8 ± 1.5 µM, 0.05 ± 0.012 µM, 14.1 ± 7.9 nM and over 250 µM.
`NCc1ccc(-c2ccc(Nc3c(C(=O)NCc4ccc(F)cc4F)c(=O)n(O)c4ncccc34)cc2)cc1` [XZ389, 4-((4′-(aminomethyl)-[1,1′-biphenyl]-4-yl)amino)-N-(2,4-difluorobenzyl)-1-hydroxy-2-oxo-1,2-dihydro-1,8-naphthyridine-3-carboxamide]: the 50% inhibitory concentration (IC50) on HIV-1 integrase (setting [6]) was over 333 µM; on HIV-1 integrase (setting [7]), 29 ± 13 µM. Besides, in data set [1], the EC50 was found to be 411 ± 30 nM. In the data set “in vitro”, the CC50 turned out to be 0.414 µM.
For the molecule `COC(=O)[C@H](C)Nc1c(C(=O)NCc2ccc(F)cc2F)c(=O)n(O)c2ncccc12` [XZ394, (S)-methyl 2-((3-((2,4-difluorobenzyl)carbamoyl)-1-hydroxy-2-oxo-1,2-dihydro-1,8-naphthyridin-4-yl)amino)propanoat], the EC50 in data set [1] is 4.2 ± 1.6 nM. Further, the CC50 in the data set “in vitro” is over 250 µM.
With `COC(=O)[C@@H](Nc1c(C(=O)NCc2ccc(F)cc2F)c(=O)n(O)c2ncccc12)c1ccccc1` [XZ396, (S)-methyl 2-((3-((2,4-difluorobenzyl)carbamoyl)-1-hydroxy-2-oxo-1,2-dihydro-1,8-naphthyridin-4-yl)amino)-2-phenylacetate], the CC50 in the data set “in vitro” was over 250 µM.
With `O=C(NCc1ccc(F)cc1F)c1c(O)c2ccc(N3CCCCC3)nc2n(O)c1=O` [XZ409, N-(2,4-difluorobenzyl)-1,4-dihydroxy-2-oxo-7-(piperidin-1-yl)-1,2-dihydro-1,8-naphthyridine-3-carboxamide], the IC50 is over 333 µM at HIV-1 integrase (setting [6]) and 70 ± 16 µM on HIV-1 integrase (setting [7]).
Turning to `Nc1c(C(=O)NCc2ccc(F)cc2F)c(=O)n(O)c2nc(N3CCCCC3)ccc12` [XZ410, 4-amino-N-(2,4-difluorobenzyl)-1-hydroxy-2-oxo-7-(piperidin-1-yl)-1,2-dihydro-1,8-naphthyridine-3-carboxamide], the IC50 was over 333 µM at HIV-1 integrase (setting [6]) and 54 ± 18 µM on HIV-1 integrase (setting [7]).
Consider `COC(=O)CNc1c(C(=O)NCc2ccc(F)cc2F)c(=O)n(O)c2nc(N3CCCCC3)ccc12` [XZ411, methyl 2-((3-((2,4-difluorobenzyl)carbamoyl)-1-hydroxy-2-oxo-7-(piperidin-1-yl)-1,2-dihydro-1,8-naphthyridin-4-yl)amino)acetate], for which the IC50 at HIV-1 integrase (setting [7]) is 96 ± 40 µM.
`O=C(NCc1ccc(F)cc1F)c1c(O)c2ccc(N3CCOCC3)nc2n(O)c1=O` [XZ412, N-(2,4-difluorobenzyl)-1,4-dihydroxy-7-morpholino-2-oxo-1,2-dihydro-1,8-naphthyridine-3-carboxamide]: the half-maximal inhibitory concentration (IC50) on HIV-1 integrase (setting [6]) is over 333 µM; on HIV-1 integrase (setting [7]) it was 1.9 ± 0.2 µM.
For `Nc1c(C(=O)NCc2ccc(F)cc2F)c(=O)n(O)c2nc(N3CCOCC3)ccc12` [XZ413, 4-amino-N-(2,4-difluorobenzyl)-1-hydroxy-7-morpholino-2-oxo-1,2-dihydro-1,8-naphthyridine-3-carboxamide], in that order: over 333 µM and 54 ± 10 µM.
For the molecule `COC(=O)CNc1c(C(=O)NCc2ccc(F)cc2F)c(=O)n(O)c2nc(N3CCOCC3)ccc12` [XZ414, methyl 2-((3-((2,4-difluorobenzyl)carbamoyl)-1-hydroxy-7-morpholino-2-oxo-1,2-dihydro-1,8-naphthyridin-4-yl)amino)acetate], the IC50 at HIV-1 integrase (setting [7]) amounted to 6.2 ± 0.8 µM.
